The term pKi denotes the negative decadic logarithm of the Ki, by convention in mol/L.

pKi: −log10 of the molar value.

Drawing on patent US8580794B2 (AbbVie Inc., priority 2009, dated 2013), this text covers Ki for 18 molecules.

The target in this assay is GST-Bc1-2 (Homo sapiens, UniProt P10415). Nature of the assay: Time Resolved-Fluorescence Resonance Energy Transfer (TR-FRET) Bcl-2 binding assay with F-Bak peptide probe. The note with it: GST-Bcl-2 1 nM, F-Bak probe 100 nM, Tb-anti-GST 1 nM; '<' = below limit of detection; read-out: TR-FRET Bcl-2 Binding Ki. In general terms: Time-resolved FRET reads energy transfer from a long-lived donor to a nearby acceptor.
Sequence of GST-Bc1-2 (P10415 whole entry): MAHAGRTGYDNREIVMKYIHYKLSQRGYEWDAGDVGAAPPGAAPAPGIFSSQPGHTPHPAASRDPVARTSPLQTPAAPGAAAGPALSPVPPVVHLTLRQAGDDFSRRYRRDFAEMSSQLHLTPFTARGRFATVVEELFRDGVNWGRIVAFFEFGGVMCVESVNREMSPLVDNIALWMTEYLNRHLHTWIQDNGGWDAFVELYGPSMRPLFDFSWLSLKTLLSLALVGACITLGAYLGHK

Consider `CC1(C)CCC(CN2CCN(c3ccc(C(=O)NS(=O)(=O)c4ccc(O[C@@H]5CCN(C(CF)CF)C5)c([N+](=O)[O-])c4)c(Oc4cnc5[nH]ccc5c4)c3)CC2)=C(c2ccc(Cl)cc2)C1` [Example 235, 4-(4-{[2-(4-chlorophenyl)-4,4-dimethylcyclohex-1-en-1-yl]methyl}piperazin-1-yl)-N-[(4-{[(3R)-1-(1,3-difluoropropan-2-yl)pyrrolidin-3-yl]oxy}-3-nitrophenyl)sulfonyl]-2-(1H-pyrrolo[2,3-b]pyridin-5-yloxy)benzamide], for which the pKi was 10.64.

In the case of `CC1(C)CCC(CN2CCN(c3ccc(C(=O)NS(=O)(=O)c4ccc(NN5CCN(C6COC6)CC5)c([N+](=O)[O-])c4)c(Oc4cnc5[nH]ccc5c4)c3)CC2)=C(c2ccc(Cl)cc2)C1` [Example 236, 4-(4-{[2-(4-chlorophenyl)-4,4-dimethylcyclohex-1-en-1-yl]methyl}piperazin-1-yl)-N-[(3-nitro-4-{[4-(oxetan-3-yl)piperazin-1-yl]amino}phenyl)sulfonyl]-2-(1H-pyrrolo[2,3-b]pyridin-5-yloxy)benzamide], the pKi is 10.48.

Consider `CC1(C)CCC(CN2CCN(c3ccc(C(=O)NS(=O)(=O)c4ccc(NN5CCN(C6CCOCC6)CC5)c([N+](=O)[O-])c4)c(Oc4cnc5[nH]ccc5c4)c3)CC2)=C(c2ccc(Cl)cc2)C1` [Example 237, 4-(4-{[2-(4-chlorophenyl)-4,4-dimethylcyclohex-1-en-1-yl]methyl}piperazin-1-yl)-N-[(3-nitro-4-{[4-(tetrahydro-2H-pyran-4-yl)piperazin-1-yl]amino}phenyl)sulfonyl]-2-(1H-pyrrolo[2,3-b]pyridin-5-yloxy)benzamide], for which the pKi is 10.62.

Turning to `CC1(C)CCC(CN2CCN(c3ccc(C(=O)NS(=O)(=O)c4ccc(N[C@@H]5CCOC5)c([N+](=O)[O-])c4)c(Oc4cnc5[nH]ccc5c4)c3)CC2)=C(c2ccc(Cl)cc2)C1` [Example 238, 4-(4-{[2-(4-chlorophenyl)-4,4-dimethylcyclohex-1-en-1-yl]methyl}piperazin-1-yl)-N-({3-nitro-4-[(3R)-tetrahydrofuran-3-ylamino]phenyl}sulfonyl)-2-(1H-pyrrolo[2,3-b]pyridin-5-yloxy)benzamide], the pKi is greater than 11.00.

Turning to `CC1(C)CCC(CN2CCN(c3ccc(C(=O)NS(=O)(=O)c4ccc(NCC5CCC(F)(F)CC5)c([N+](=O)[O-])c4)c(Oc4cnc5[nH]ccc5c4)c3)CC2)=C(c2ccc(Cl)cc2)C1` [Example 239, 4-(4-{[2-(4-chlorophenyl)-4,4-dimethylcyclohex-1-en-1-yl]methyl}piperazin-1-yl)-N-[(4-{[(4,4-difluorocyclohexyl)methyl]amino}-3-nitrophenyl)sulfonyl]-2-(1H-pyrrolo[2,3-b]pyridin-5-yloxy)benzamide], the negative logarithm of the Ki (pKi) is 10.59.

For the molecule `CC1(C)CCC(CN2CCN(c3ccc(C(=O)NS(=O)(=O)c4ccc(NC5CCN(C(C)(C)C)CC5)c(S(=O)(=O)C(F)(F)F)c4)c(Oc4cnc5[nH]ccc5c4)c3)CC2)=C(c2ccc(Cl)cc2)C1` [Example 240, N-({4-[(1-tert-butylpiperidin-4-yl)amino]-3-[(trifluoromethyl)sulfonyl]phenyl}sulfonyl)-4-(4-{[2-(4-chlorophenyl)-4,4-dimethylcyclohex-1-en-1-yl]methyl}piperazin-1-yl)-2-(1H-pyrrolo[2,3-b]pyridin-5-yloxy)benzamide], the pKi was greater than 11.00.

With `CC1(C)CCC(CN2CCN(c3ccc(C(=O)NS(=O)(=O)c4ccc(NCC5CN(C6COC6)CCO5)c(S(=O)(=O)C(F)(F)F)c4)c(Oc4cnc5[nH]ccc5c4)c3)CC2)=C(c2ccc(Cl)cc2)C1` (stereo not drawn) [Example 241, 4-(4-{[2-(4-chlorophenyl)-4,4-dimethylcyclohex-1-en-1-yl]methyl}piperazin-1-yl)-N-({4-({[4-(oxetan-3-yl)morpholin-2-yl]methyl}amino)-3-[(trifluoromethyl)sulfonyl]phenyl}sulfonyl)-2-(1H-pyrrolo[2,3-b]pyridin-5-yloxy)benzamide], the pKi is greater than 11.00.

`CC1(C)CCC(CN2CCN(c3ccc(C(=O)NS(=O)(=O)c4cnc(NCC5(F)CCOCC5)c(Cl)c4)c(Oc4cnc5[nH]ccc5c4)c3)CC2)=C(c2ccc(Cl)cc2)C1` [Example 242, N-[(5-chloro-6-{[(4-fluorotetrahydro-2H-pyran-4-yl)methyl]amino}pyridin-3-yl)sulfonyl]-4-(4-{[2-(4-chlorophenyl)-4,4-dimethylcyclohex-1-en-1-yl]methyl}piperazin-1-yl)-2-(1H-pyrrolo[2,3-b]pyridin-5-yloxy)benzamide]: the pKi is 10.24.

In the case of `CC1(C)CCC(CN2CCN(c3ccc(C(=O)NS(=O)(=O)c4cnc(NC5CCN(C6CC6)CC5)c(Cl)c4)c(Oc4cnc5[nH]ccc5c4)c3)CC2)=C(c2ccc(Cl)cc2)C1` [Example 243, N-({5-chloro-6-[(1-cyclopropylpiperidin-4-yl)amino]pyridin-3-yl}sulfonyl)-4-(4-{[2-(4-chlorophenyl)-4,4-dimethylcyclohex-1-en-1-yl]methyl}piperazin-1-yl)-2-(1H-pyrrolo[2,3-b]pyridin-5-yloxy)benzamide], the pKi is 9.26.

As to `CC1(C)CCC(CN2CCN(c3ccc(C(=O)NS(=O)(=O)c4cnc(OC[C@@H]5CN(CC#N)CCO5)c(Cl)c4)c(Oc4cnc5[nH]ccc5c4)c3)CC2)=C(c2ccc(Cl)cc2)C1` [Example 244, N-[(5-chloro-6-{[(2S)-4-(cyanomethyl)morpholin-2-yl]methoxy}pyridin-3-yl)sulfonyl]-4-(4-{[2-(4-chlorophenyl)-4,4-dimethylcyclohex-1-en-1-yl]methyl}piperazin-1-yl)-2-(1H-pyrrolo[2,3-b]pyridin-5-yloxy)benzamide], the pKi was 9.55.

As for `CN(C)CC(=O)N1CCO[C@H](COc2ncc(S(=O)(=O)NC(=O)c3ccc(N4CCN(CC5=C(c6ccc(Cl)cc6)CC(C)(C)CC5)CC4)cc3Oc3cnc4[nH]ccc4c3)cc2Cl)C1` [Example 245, N-[(5-chloro-6-{[(2S)-4-(N,N-dimethylglycyl)morpholin-2-yl]methoxy}pyridin-3-yl)sulfonyl]-4-(4-{[2-(4-chlorophenyl)-4,4-dimethylcyclohex-1-en-1-yl]methyl}piperazin-1-yl)-2-(1H-pyrrolo[2,3-b]pyridin-5-yloxy)benzamide], the negative logarithm of the Ki (pKi) was 10.82.

As for `CC1(C)CCC(CN2CCN(c3ccc(C(=O)NS(=O)(=O)c4cnc(OC[C@H]5CN(CC#N)CCO5)c(Cl)c4)c(Oc4cnc5[nH]ccc5c4)c3)CC2)=C(c2ccc(Cl)cc2)C1` [Example 246, N-[(5-chloro-6-{[(2R)-4-(cyanomethyl)morpholin-2-yl]methoxy}pyridin-3-yl)sulfonyl]-4-(4-{[2-(4-chlorophenyl)-4,4-dimethylcyclohex-1-en-1-yl]methyl}piperazin-1-yl)-2-(1H-pyrrolo[2,3-b]pyridin-5-yloxy)benzamide], the negative logarithm of the Ki (pKi) is 9.84.

For `CN(C)CC(=O)N1CCO[C@@H](COc2ncc(S(=O)(=O)NC(=O)c3ccc(N4CCN(CC5=C(c6ccc(Cl)cc6)CC(C)(C)CC5)CC4)cc3Oc3cnc4[nH]ccc4c3)cc2Cl)C1` [Example 247, N-[(5-chloro-6-{[(2R)-4-(N,N-dimethylglycyl)morpholin-2-yl]methoxy}pyridin-3-yl)sulfonyl]-4-(4-{[2-(4-chlorophenyl)-4,4-dimethylcyclohex-1-en-1-yl]methyl}piperazin-1-yl)-2-(1H-pyrrolo[2,3-b]pyridin-5-yloxy)benzamide], the pKi was 10.72.

As to `CC1(C)CCC(CN2CCN(c3ccc(C(=O)NS(=O)(=O)c4cnc(OCC5(F)CCOCC5)c(F)c4)c(Oc4cnc5[nH]ccc5c4)c3)CC2)=C(c2ccc(Cl)cc2)C1` [Example 248, 4-(4-{[2-(4-chlorophenyl)-4,4-dimethylcyclohex-1-en-1-yl]methyl}piperazin-1-yl)-N-({5-fluoro-6-[(4-fluorotetrahydro-2H-pyran-4-yl)methoxy]pyridin-3-yl}sulfonyl)-2-(1H-pyrrolo[2,3-b]pyridin-5-yloxy)benzamide], the pKi was 10.54.

Consider `CC1(C)CCC(CN2CCN(c3ccc(C(=O)NS(=O)(=O)c4cnc(OCC(C)(CO)CO)c(Cl)c4)c(Oc4cnc5[nH]ccc5c4)c3)CC2)=C(c2ccc(Cl)cc2)C1` [Example 250, N-({5-chloro-6-[3-hydroxy-2-(hydroxymethyl)-2-methylpropoxy]pyridin-3-yl}sulfonyl)-4-(4-{[2-(4-chlorophenyl)-4,4-dimethylcyclohex-1-en-1-yl]methyl}piperazin-1-yl)-2-(1H-pyrrolo[2,3-b]pyridin-5-yloxy)benzamide], for which the negative-log Ki (pKi) was 9.39.

Turning to `CC1(C)CCC(CN2CCN(c3ccc(C(=O)NS(=O)(=O)c4ccc(OCC5(F)CCOCC5)nc4)c(Oc4cnc5[nH]ccc5c4)c3)CC2)=C(c2ccc(Cl)cc2)C1` [Example 251, 4-(4-{[2-(4-chlorophenyl)-4,4-dimethylcyclohex-1-en-1-yl]methyl}piperazin-1-yl)-N-({6-[(4-fluorotetrahydro-2H-pyran-4-yl)methoxy]pyridin-3-yl}sulfonyl)-2-(1H-pyrrolo[2,3-b]pyridin-5-yloxy)benzamide], the negative logarithm of the Ki (pKi) was 9.24.

As to `CC1(C)CCC(CN2CCN(c3ccc(C(=O)NS(=O)(=O)c4ccc(NCC5CN(C(CF)CF)CCO5)c([N+](=O)[O-])c4)c(Oc4cnc5[nH]ccc5c4)c3)CC2)=C(c2ccc(Cl)cc2)C1` (stereo not drawn) [Example 252, 4-(4-{[2-(4-chlorophenyl)-4,4-dimethylcyclohex-1-en-1-yl]methyl}piperazin-1-yl)-N-{[4-({[4-(1,3-difluoropropan-2-yl)morpholin-2-yl]methyl}amino)-3-nitrophenyl]sulfonyl}-2-(1H-pyrrolo[2,3-b]pyridin-5-yloxy)benzamide], the pKi is greater than 11.00.

Regarding `CC1(C)CCC(CN2CCN(c3ccc(C(=O)NS(=O)(=O)c4cnc(OCC5CCN(CC#N)CC5)c(Cl)c4)c(Oc4cnc5[nH]ccc5c4)c3)CC2)=C(c2ccc(Cl)cc2)C1` [Example 253, N-[(5-chloro-6-{[1-(cyanomethyl)piperidin-4-yl]methoxy}pyridin-3-yl)sulfonyl]-4-(4-{[2-(4-chlorophenyl)-4,4-dimethylcyclohex-1-en-1-yl]methyl}piperazin-1-yl)-2-(1H-pyrrolo[2,3-b]pyridin-5-yloxy)benzamide], the negative logarithm of the Ki (pKi) is 10.28.
